From US20260055121A1, “TYK2 INHIBITORS AND USES THEREOF” (Sudo Biosciences Limited, priority 2022, published 2026)

Key:
TYK2 Pseudokinase (JH2) [1] = target: T1, TYK2 Pseudokinase (JH2) (Homo sapiens, UniProt P29597); assay: HEK-Blue IL-23 reporter assay (STAT3-inducible SEAP) for profiling TYK2 pseudokinase (JH2) inhibition; type: cell-based; conditions: HEK-Blue IL-23 cells, 10 ng/mL human recombinant IL-23, SEAP readout; read-out: IL23
T1 construct: HEK-Blue™ IL-23 and IFNα/0 cells with a stably-integrated cytokine receptor and STAT3 or STAT1; endogenous in cells; host or cells: HEK-Blue IL-23 and HEK-Blue IFNα/β reporter cells
Protocol: (§1) HEK-Blue™ IL-23 and IFNα/0 cells with a stably-integrated cytokine receptor and STAT3 or STAT1 express STAT-inducible secreted embryonic alkaline phosphatase (SEAP) reporter gene upon cytokine stimulation. These cells are plated in DMEM (Gibco) containing 10% heat-inactivated FBS (Gibco) and 100 U/mL PenStrep (Gibco) at 37° C. under 5% CO2 conditions for 20-22 hours. The cells are then pretreated with serially diluted test compounds for 60 min prior to stimulation with either 10 ng/mL human recombinant IL-23 (Miltenyl Biotech) or 1 ng/mL human recombinant IFNα (InvivoGen) for 22-24 hours for IL-23 or 16-18 h for IFNα. SEAP induction is measured using the QUANTI Blue™ Solution (InvivoGen) according to the manufacturer's instructions.

TYK2 Pseudokinase (JH2) [2] = target: T1, TYK2 Pseudokinase (JH2); assay: HEK-Blue IFNα/β reporter assay (STAT1-inducible SEAP) for profiling TYK2 pseudokinase (JH2) inhibition; type: cell-based; conditions: HEK-Blue IFNα/β cells, 1 ng/mL human recombinant IFNα, SEAP readout
Protocol: as §1

IL-2 = assay: HEK-Blue IL-2 reporter assay (STAT5-inducible SEAP) for determining selectivity; type: cell-based; conditions: HEK-Blue IL-2 reporter cells, 4 ng/mL human recombinant IL-2, SEAP readout
Protocol: (§2) HEK-Blue™ IL-2 and IFNγ reporter cells with a stably-integrated cytokine receptor and STAT5 or STAT1 express STAT-inducible secreted embryonic alkaline phosphatase (SEAP) reporter gene upon cytokine stimulation. These cells were plated in DMEM (Gibco) containing 10% heat-inactivated FBS (Gibco) and 100 U/mL PenStrep (Gibco) at 37° C. under 5% CO2 conditions for 20-22 hours. The cells were then pretreated with serially diluted test compounds for 60 min prior to stimulation with either 4 ng/mL human recombinant TL-2 (Miltenyl Biotech) or 50 ng/mL human recombinant IFNγ (InvivoGen) for 24 hours. SEAP induction was measured using the QUANTI-Blue™ Solution (InvivoGen) according to the manufacturer's instructions.

IFN-γ = assay: HEK-Blue IFNγ reporter assay (STAT1-inducible SEAP) for determining selectivity; type: cell-based; conditions: HEK-Blue IFNγ reporter cells, 50 ng/mL human recombinant IFNγ, SEAP readout
Protocol: as §2

JAK1-JH1 = target: T2, JAK1-JH1 (Homo sapiens, UniProt P23458); assay: HTRF-based selectivity assay, JAK1 catalytic domain; type: biochemical; conditions: kinase domain (JH1), 21.43 μM ATP
T2 construct: recombinant purified His or GST-tagged catalytic domain for each enzyme; made in house
Protocol: The ability of compounds to inhibit the activity of JAK1, JAK2, JAK3 and TYK2 is measured using a recombinant purified His or GST-tagged catalytic domain for each enzyme (JAK1, JAK2 and TYK2 are generated in-house; JAK3 was purchased from Carna biosciences, Cat #08-046) in an HTRF format biochemical assay. The reactions employs a commercial peptide substrate from Cisbio (Cat #62TK0PEC). The basic assay protocol is as follows: first, 2.5 μL of diluted compounds (4×) in DMSO are dispensed into a 384-well Optiplate. Next, 2.5 μL of enzyme (final concentrations for enzymes are: TYK2- 700 ng/mL, JAK1- 80.6 ng/mL, JAK2- 2.1 ng/mL and JAK3- 171.8 ng/mL) is added and incubated at RT for 5-20 min. Finally, 5 μl of mixture of 2×ATP [Final concentration 20 μM for TYK2, 21.43 μM for JAK1, 14.7 μM for JAK2 and 2.12 μM for JAK3]^+2× Substrate [Final concentration 217 nM for TYK2, 454.7 nM for JAK1, 200 nM for JAK2 and 257.4 nM for JAK3] is added to 384 well Optiplate. Composition of Kinase assay buffer used in the assay is as follows: HEPES 50 mM, EGTA 1 mM, MgCl2 10 mM, DTT 2 mM, Tween-20 0.01% and water. Then the plates are shaken and then incubated at 26.5° C. for 60 min.

T1 sequence (P29597 whole entry): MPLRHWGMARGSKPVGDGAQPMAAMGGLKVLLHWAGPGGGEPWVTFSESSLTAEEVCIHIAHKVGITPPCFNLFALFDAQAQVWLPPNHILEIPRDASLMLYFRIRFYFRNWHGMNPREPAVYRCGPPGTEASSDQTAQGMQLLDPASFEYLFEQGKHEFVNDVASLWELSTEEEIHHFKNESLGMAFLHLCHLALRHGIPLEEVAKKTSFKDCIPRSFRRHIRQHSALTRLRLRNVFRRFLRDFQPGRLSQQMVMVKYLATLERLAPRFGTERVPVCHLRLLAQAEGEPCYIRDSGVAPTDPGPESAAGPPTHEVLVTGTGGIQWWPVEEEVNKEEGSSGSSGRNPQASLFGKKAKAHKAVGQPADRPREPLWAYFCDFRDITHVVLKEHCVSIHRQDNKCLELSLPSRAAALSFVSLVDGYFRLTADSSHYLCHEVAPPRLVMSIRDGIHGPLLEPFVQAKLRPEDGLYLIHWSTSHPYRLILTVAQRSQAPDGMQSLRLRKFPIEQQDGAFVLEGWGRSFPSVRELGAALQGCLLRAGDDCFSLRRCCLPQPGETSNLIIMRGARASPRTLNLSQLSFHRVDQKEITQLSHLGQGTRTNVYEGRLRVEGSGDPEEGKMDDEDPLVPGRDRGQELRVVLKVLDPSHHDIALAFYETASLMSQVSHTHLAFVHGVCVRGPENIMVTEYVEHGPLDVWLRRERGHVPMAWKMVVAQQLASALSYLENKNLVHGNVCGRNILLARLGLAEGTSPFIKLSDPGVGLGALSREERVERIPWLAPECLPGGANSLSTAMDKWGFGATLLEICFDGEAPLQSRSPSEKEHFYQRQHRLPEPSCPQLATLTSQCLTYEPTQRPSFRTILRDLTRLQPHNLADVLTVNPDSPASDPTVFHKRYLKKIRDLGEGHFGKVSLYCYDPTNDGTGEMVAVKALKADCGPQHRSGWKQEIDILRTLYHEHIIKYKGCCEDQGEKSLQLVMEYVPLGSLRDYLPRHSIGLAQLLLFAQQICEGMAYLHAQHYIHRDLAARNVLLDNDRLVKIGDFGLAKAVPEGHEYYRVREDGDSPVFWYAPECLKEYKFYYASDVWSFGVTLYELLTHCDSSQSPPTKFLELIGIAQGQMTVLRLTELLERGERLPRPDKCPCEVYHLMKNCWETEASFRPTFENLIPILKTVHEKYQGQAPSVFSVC
T2 sequence (P23458 875-1153 limits assumed): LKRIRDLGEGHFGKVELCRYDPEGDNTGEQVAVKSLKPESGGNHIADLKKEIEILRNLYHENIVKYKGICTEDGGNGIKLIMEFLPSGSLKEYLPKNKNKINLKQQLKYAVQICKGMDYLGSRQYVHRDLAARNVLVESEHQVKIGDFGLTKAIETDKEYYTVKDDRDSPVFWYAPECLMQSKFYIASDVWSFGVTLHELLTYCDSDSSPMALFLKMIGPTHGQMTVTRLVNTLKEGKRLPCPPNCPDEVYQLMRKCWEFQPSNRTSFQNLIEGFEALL

SMILES | IC50 (TYK2 Pseudokinase (JH2) [1]) [µM] | IC50 (TYK2 Pseudokinase (JH2) [2]) [µM] | IC50 (IL-2) [µM] | IC50 (IFN-γ) [µM] | IC50 (JAK1-JH1) [µM]
CCONC(=O)c1cnc(NC(=O)C2CC2)cc1Nc1cccc2c1N(C)[C@@H](C)c1nc(C)nn1-2 [Compound 9, (S)-6-(cyclopropanecarboxamido)-N-ethoxy-4-((2,4,5-trimethyl-4,5-dihydro-[1,2,4]triazolo[1,5-a]quinoxalin-6-yl)amino)nicotinamide] | < 0.03 | < 0.03 |  |  | 
CCONC(=O)c1nnc(NC(=O)C2CC2)cc1Nc1nccc2c1N(C)[C@@H](C)c1nn(C)nc1-2 (single isomer, unassigned) [Compound 16] | < 0.03 | < 0.03 |  |  | 
CNC(=O)c1cnc2[nH]ccc2c1Nc1cccc2c1N(C)CCn1cnnc1-2 [Compound 6, N-methyl-4-((7-methyl-6,7-dihydro-5H-benzo[f][1,2,4]triazolo[4,3-d][1,4]diazepin-8-yl)amino)-1H-pyrrolo[2,3-b]pyridine-5-carboxamide] | > 1 | > 1 |  |  | 
Cc1nc2n(n1)-c1cccc(Nc3cc(NC(=O)C4CC4)nc4[nH]n(C)c(=O)c34)c1N(C)[C@H]2C [Compound 3, (S)—N-(2-methyl-3-oxo-4-((2,4,5-trimethyl-4,5-dihydro-[1,2,4]triazolo[1,5-a]quinoxalin-6-yl)amino)-2,3-dihydro-1H-pyrazolo[3,4-b]pyridin-6-yl)cyclopropanecarboxamide] | < 0.03 | 0.03 to 0.3 | > 1 | > 1 | 
CONC(=O)c1nnc(NC(=O)C2CC2)cc1Nc1cccc2c1N(C)[C@@H](C)c1nc(C)nn1-2 [Compound 10, (S)-6-(cyclopropanecarboxamido)-N-methoxy-4-((2,4,5-trimethyl-4,5-dihydro-[1,2,4]triazolo[1,5-a]quinoxalin-6-yl)amino)pyridazine-3-carboxamide] | < 0.03 | 0.03 to 0.3 |  |  | 
CCONC(=O)c1nnc(Nc2cc(C)nc(C)n2)cc1Nc1cccc2c1N(C)[C@@H](C)c1nc(C)nn1-2 [Compound 14, (S)-6-((2,6-dimethylpyrimidin-4-yl)amino)-N-ethoxy-4-((2,4,5-trimethyl-4,5-dihydro-[1,2,4]triazolo[1,5-a]quinoxalin-6-yl)amino)pyridazine-3-carboxamide] | < 0.03 | < 0.03 |  |  | 
CN1Cc2cn(C)nc2-c2cccc(Nc3cc(NC(=O)C4CC4)nc4[nH]n(C)c(=O)c34)c21 [Compound 2, N-(4-((2,5-dimethyl-4,5-dihydro-2H-pyrazolo[4,3-c]quinolin-6-yl)amino)-2-methyl-3-oxo-2,3-dihydro-1H-pyrazolo[3,4-b]pyridin-6-yl)cyclopropanecarboxamide] | < 0.03 | < 0.03 |  |  | > 1
Cn1cc2c(n1)-c1cccc(Nc3cc(NC(=O)C4CC4)nc4[nH]n(C)c(=O)c34)c1OC2 [Compound 1, N-(2-methyl-4-((2-methyl-2,4-dihydrochromeno[4,3-c]pyrazol-6-yl)amino)-3-oxo-2,3-dihydro-1H-pyrazolo[3,4-b]pyridin-6-yl)cyclopropanecarboxamide] | 0.3 to 1 |  |  |  | > 1
CONC(=O)c1cnc(NC(=O)C2CC2)cc1Nc1cccc2c1N(C)[C@@H](C)c1nc(C)nn1-2 [Compound 8, (S)-6-(cyclopropanecarboxamido)-N-methoxy-4-((2,4,5-trimethyl-4,5-dihydro-[1,2,4]triazolo[1,5-a]quinoxalin-6-yl)amino)nicotinamide] | < 0.03 | 0.03 to 0.3 |  |  | 
CCONC(=O)c1nnc(NC(=O)C2CC2)cc1Nc1cccc2c1N(C)[C@@H](C)c1nc(C)nn1-2 [Compound 13, (S)-6-(cyclopropanecarboxamido)-N-ethoxy-4-((2,4,5-trimethyl-4,5-dihydro-[1,2,4]triazolo[1,5-a]quinoxalin-6-yl)amino)pyridazine-3-carboxamide] | < 0.03 | 0.03 to 0.3 |  |  | 
CCONC(=O)c1nnc(Nc2ccc(F)cn2)cc1Nc1cccc2c1N(C)[C@@H](C)c1nc(C)nn1-2 [Compound 15, (S)—N-ethoxy-6-((5-fluoropyridin-2-yl)amino)-4-((2,4,5-trimethyl-4,5-dihydro-[1,2,4]triazolo[1,5-a]quinoxalin-6-yl)amino)pyridazine-3-carboxamide] | < 0.03 | < 0.03 |  |  | 
CONC(=O)c1nnc(Nc2ccc(F)cn2)cc1Nc1cccc2c1N(C)[C@@H](C)c1nc(C)nn1-2 [Compound 11, (S)-6-((5-fluoropyridin-2-yl)amino)-N-methoxy-4-((2,4,5-trimethyl-4,5-dihydro-[1,2,4]triazolo[1,5-a]quinoxalin-6-yl)amino)pyridazine-3-carboxamide] | < 0.03 | < 0.03 |  |  | 
CONC(=O)c1nnc(Nc2cc(C)nc(C)n2)cc1Nc1cccc2c1N(C)[C@@H](C)c1nc(C)nn1-2 [Compound 12, (S)-6-((2,6-dimethylpyrimidin-4-yl)amino)-N-methoxy-4-((2,4,5-trimethyl-4,5-dihydro-[1,2,4]triazolo[1,5-a]quinoxalin-6-yl)amino)pyridazine-3-carboxamide] | < 0.03 | < 0.03 |  |  | 
CNC(=O)c1cnc2[nH]ccc2c1Nc1cccc2c1N(C)Cc1cn(C)nc1-2 [Compound 7, 4-((2,5-dimethyl-4,5-dihydro-2H-pyrazolo[4,3-c]quinolin-6-yl)amino)-N-methyl-1H-pyrrolo[2,3-b]pyridine-5-carboxamide] | > 1 | > 1 |  |  | 
[2H]C([2H])([2H])NC(=O)c1c(Nc2cccc3c2N(C)[C@@H](C)c2nc(C)nn2-3)cc(NC(=O)C2CC2)nc1N [Compound 4, (S)-2-amino-6-(cyclopropanecarboxamido)-N-(methyl-d3)-4-((2,4,5-trimethyl-4,5-dihydro-[1,2,4]triazolo[1,5-a]quinoxalin-6-yl)amino)nicotinamide] | > 1 | > 1 |  |  | 
